Biological target: APSR (Mycobacterium tuberculosis, UniProt P9WIK3)
Assay: standard radioactive assay measuring APSR reduction of 35S-labeled APS substrate
Type: biochemical, M. tuberculosis
Conditions: for inhibition at 100 µM: read-out: inhibition of APSR activity, tested at 100 μM

Sequence of APSR (P9WIK3 whole entry): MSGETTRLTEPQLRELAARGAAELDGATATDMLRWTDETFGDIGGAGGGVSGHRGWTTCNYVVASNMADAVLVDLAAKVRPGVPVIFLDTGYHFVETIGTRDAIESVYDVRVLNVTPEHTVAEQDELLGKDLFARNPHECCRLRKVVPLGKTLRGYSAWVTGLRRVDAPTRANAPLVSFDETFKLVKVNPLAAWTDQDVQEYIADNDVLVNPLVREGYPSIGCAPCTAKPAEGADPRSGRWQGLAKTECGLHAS

SMILES: O=C1c2ccccc2-c2cc([N+](=O)[O-])c([N+](=O)[O-])cc21 [NSC 133896]
- inhibition at 100 µM: > 50%

SMILES: O=C1c2ccccc2-c2ccc([N+](=O)[O-])cc21 [2-nitro-9-fluorenone]
- activity against APSR (in words): neither 9-fluorenone nor 2-nitro-9-fluorenone, which are closely related to 133896, exhibited significant activity

SMILES: O=C(O)CCc1nnc2c3ccccc3c3ccccc3c2n1 [NSC 327704]
- inhibition at 100 µM: > 50%

SMILES: O=C1c2ccccc2-c2ccccc21 [9-fluorenone]
- activity against APSR (in words): neither 9-fluorenone nor 2-nitro-9-fluorenone, which are closely related to 133896, exhibited significant activity
